Test results reported in PubChem BioAssay AID248 (DTP/NCI, 2004).
Values joined by “and” are separate entries in the source; they are usually repeats but may differ in a detail not shown here. Equal values may be shown once. Inconclusive results and toxic doses are left out. No stated cut-off is given here; in the data, active means T/C of 150% or more; inactive means T/C below 125%.

Tested on: L1210 leukemia ip in BDF1 mice, survival T/C
Test: NCI In Vivo Anticancer Drug Screen. Data for tumor model L1210 Leukemia (intraperitoneal) in B6D2F1 (BDF1) mice
Conditions: endpoint: mean survival time, higher = longer survival
Outline: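 Mice bearing the transplanted tumor received compound or vehicle. Survival of the treated group was divided by that of the vehicle-treated control group to give the ratio.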

[1] = dose: 100.0 mg/kg/injection, schedule: Q01DX001 (ip), vehicle: saline
[2] = dose: 200.0 mg/kg/injection, schedule: Q01DX001 (ip), vehicle: saline
[3] = dose: 400.0 mg/kg/injection, schedule: Q01DX001 (ip), vehicle: saline
[4] = dose: 100.0 mg/kg/injection, schedule: Q01DX009 (ip), vehicle: Klucel (hydroxypropylcellulose) (HPC)
[5] = dose: 100.0 mg/kg/injection, schedule: Q04DX003 (ip), vehicle: saline
[6] = dose: 200.0 mg/kg/injection, schedule: Q01DX009 (ip), vehicle: Klucel (hydroxypropylcellulose) (HPC)
[7] = dose: 200.0 mg/kg/injection, schedule: Q04DX003 (ip), vehicle: saline
[8] = dose: 400.0 mg/kg/injection, schedule: Q01DX009 (ip), vehicle: Klucel (hydroxypropylcellulose) (HPC)
[9] = dose: 400.0 mg/kg/injection, schedule: Q04DX003 (ip), vehicle: saline
[10] = dose: 100.0 mg/kg/injection, schedule: Q04DX002 (ip), vehicle: saline with Tween-80
[11] = dose: 200.0 mg/kg/injection, schedule: Q04DX002 (ip), vehicle: saline with Tween-80
[12] = dose: 400.0 mg/kg/injection, schedule: Q04DX002 (ip), vehicle: saline with Tween-80
[13] = dose: 100.0 mg/kg/injection, schedule: Q04DX003 (ip), vehicle: Klucel (hydroxypropylcellulose) (HPC)
[14] = dose: 200.0 mg/kg/injection, schedule: Q04DX003 (ip), vehicle: Klucel (hydroxypropylcellulose) (HPC)
[15] = dose: 400.0 mg/kg/injection, schedule: Q04DX003 (ip), vehicle: Klucel (hydroxypropylcellulose) (HPC)
[16] = dose: 100.0 mg/kg/injection, schedule: Q01DX009 (ip), vehicle: other
[17] = dose: 200.0 mg/kg/injection, schedule: Q01DX009 (ip), vehicle: other

Measured: T/C

CC(C)CCNCC(C)OC(=O)c1ccc([N+](=O)[O-])cc1 (centres undefined)
inactive: dose: 75.0 mg/kg/injection, schedule: Q01DX001 (ip), vehicle: other 98 % of control | dose: 150.0 mg/kg/injection, schedule: Q01DX001 (ip), vehicle: other 106 % of control | dose: 300.0 mg/kg/injection, schedule: Q01DX001 (ip), vehicle: other 95 % of control

Cc1cn(C2OC(CO)C(O)C2O)c(=O)[nH]c1=O (centres undefined)
inactive: dose: 3.75 mg/kg/injection, schedule: Q01DX Z (ip), vehicle: saline 86 % of control | dose: 6.25 mg/kg/injection, schedule: Q03HX024 (ip), vehicle: saline 102 % of control | dose: 7.5 mg/kg/injection, schedule: Q01DX Z (ip), vehicle: saline 88 % of control | dose: 12.5 mg/kg/injection, schedule: Q03HX024 (ip), vehicle: saline 94 % of control | dose: 25.0 mg/kg/injection, schedule: Q03HX024 (ip), vehicle: saline 107 % of control | dose: 30.0 mg/kg/injection, schedule: Q01DX Z (ip), vehicle: saline 86 % of control | dose: 50.0 mg/kg/injection, schedule: Q01DX001 (ip), vehicle: carboxymethylcellulose (CMC) 116 % of control | dose: 50.0 mg/kg/injection, schedule: Q03HX024 (ip), vehicle: saline 102 % of control | dose: 60.0 mg/kg/injection, schedule: Q01DX Z (ip), vehicle: saline 92 % of control | dose: 100.0 mg/kg/injection, schedule: Q01DX001 (ip), vehicle: carboxymethylcellulose (CMC) 97 % of control | [1] 87 % of control | dose: 200.0 mg/kg/injection, schedule: Q01DX001 (ip), vehicle: carboxymethylcellulose (CMC) 106 % of control | [2] 92 % of control | dose: 400.0 mg/kg/injection, schedule: Q01DX001 (ip), vehicle: carboxymethylcellulose (CMC) 95 % of control | [3] 90 % of control

Cc1cccc(NC(=O)c2ccc(Cl)cc2)c1C
inactive: [4] 99 % of control | [5] 111 % of control | [6] 95 % of control | [7] 104 % of control | [8] 95 % of control | [9] 109 % of control

CC/C(C)=C\CC/C(C)=C/COc1cccc(OC)c1
inactive: [10] 108 % of control | [11] 101 % of control | [12] 103 % of control

COc1cccc(C(=NC(=O)c2ccccc2)c2ccccc2)c1
inactive: [4] 100 % of control | [6] 97 % of control | [8] 91 % of control

C/C=C1/C[C@@H](C)[C@@](C)(O)C(=O)OCC2=CC[N+]3([O-])CC[C@@H](OC1=O)[C@@H]23 (some centres undefined)
inactive: dose: 20.0 mg/kg/injection, schedule: Q01DX015 (ip), vehicle: saline 98 % of control | dose: 30.0 mg/kg/injection, schedule: Q01DX015 (ip), vehicle: saline 96 % of control | dose: 40.0 mg/kg/injection, schedule: Q01DX015 (ip), vehicle: saline 102 % of control

CCCC(C)C(=O)c1ccccc1 (centres undefined)
inactive: [4] 96 % of control | [13] 103 % of control | [6] 93 % of control | [14] 110 % of control | [8] 96 % of control | [15] 108 % of control

CCN(Cc1ccccc1)C(=O)Nc1cccc(Cl)c1
inactive: [16] 106 % of control | [17] 108 % of control | dose: 400.0 mg/kg/injection, schedule: Q01DX009 (ip), vehicle: other 105 % of control

CC(=O)C(=O)O
inactive: [1] 110 % of control | [2] 95 % of control | [3] 87 % of control

Cc1ccc(C2=NN(c3ccccc3)C(c3ccccc3)C2NC2CCCCC2)cc1 (centres undefined)
inactive: dose: 100.0 mg/kg/injection, schedule: Q01DX009 (ip), vehicle: acetone 86 % of control | dose: 400.0 mg/kg/injection, schedule: Q01DX009 (ip), vehicle: acetone 100 % of control

CN(C)c1ccc([N+](=O)[O-])cn1
inactive: [10] 97 % of control | [11] 97 % of control

COc1ccc2nc3cc(Cl)ccc3c(NCCC[N+](C)(C)CCCCCCCCCC[N+](C)(C)CCCNc3c4ccc(Cl)cc4nc4ccc(OC)cc34)c2c1
inactive: dose: 0.78 mg/kg/injection, schedule: Q01DX009 (ip), vehicle: saline with Tween-80 102 % of control | dose: 1.56 mg/kg/injection, schedule: Q01DX009 (ip), vehicle: saline with Tween-80 94 % of control and 100 % of control | dose: 3.13 mg/kg/injection, schedule: Q01DX009 (ip), vehicle: saline with Tween-80 100 % of control and 101 % of control | dose: 6.25 mg/kg/injection, schedule: Q01DX009 (ip), vehicle: saline with Tween-80 106 % of control

CC(=O)Nc1c(OC(C)=O)ccc2cc(Br)ccc12
inactive: dose: 100.0 mg/kg/injection, schedule: Q01DX015 (ip), vehicle: saline 92 % of control | dose: 200.0 mg/kg/injection, schedule: Q01DX015 (ip), vehicle: saline 100 % of control | dose: 400.0 mg/kg/injection, schedule: Q01DX015 (ip), vehicle: saline 92 % of control | dose: 800.0 mg/kg/injection, schedule: Q01DX015 (ip), vehicle: saline 96 % of control

O=C(Nc1ccc(CCC2=NCCN2)cc1)c1ccc(C(=O)Nc2ccc(CCC3=NCCN3)cc2)cc1
inactive: dose: 30.0 mg/kg/injection, schedule: Q01DX Z (oral), vehicle: saline 101 % of control | dose: 60.0 mg/kg/injection, schedule: Q01DX Z (oral), vehicle: saline 103 % of control | dose: 120.0 mg/kg/injection, schedule: Q01DX Z (oral), vehicle: saline 106 % of control | dose: 240.0 mg/kg/injection, schedule: Q01DX Z (oral), vehicle: saline 97 % of control

CCOC(=O)C(Cc1c[nH]c2ccccc12)C(=O)OCC
inactive: [13] 96 % of control | [14] 94 % of control | [15] 98 % of control

O=C1c2cc(Cl)ccc2-c2c(Cl)cc(Cl)cc21
inactive: dose: 100.0 mg/kg/injection, schedule: Q01DX001 (ip), vehicle: acetone 89 % of control | [5] 87 % of control | dose: 200.0 mg/kg/injection, schedule: Q01DX001 (ip), vehicle: acetone 89 % of control | [7] 96 % of control | dose: 400.0 mg/kg/injection, schedule: Q01DX001 (ip), vehicle: acetone 95 % of control | [9] 86 % of control

CC[N+]1=NC2CCCC(C2)C1 (centres undefined)
inactive: dose: 50.0 mg/kg/injection, schedule: Q01DX009 (ip), vehicle: saline 96 % of control | dose: 100.0 mg/kg/injection, schedule: Q01DX009 (ip), vehicle: saline 86 % of control | [5] 101 % of control | dose: 200.0 mg/kg/injection, schedule: Q01DX009 (ip), vehicle: saline 90 % of control | [7] 95 % of control

OCC(CO)(CCl)CCl
inactive: dose: 100.0 mg/kg/injection, schedule: Q01DX009 (ip), vehicle: saline with Tween-80 103 % of control | dose: 200.0 mg/kg/injection, schedule: Q01DX009 (ip), vehicle: saline with Tween-80 103 % of control | dose: 400.0 mg/kg/injection, schedule: Q01DX009 (ip), vehicle: saline with Tween-80 96 % of control

COc1ccc(CSC(=S)Nc2ccc(Cl)c(Cl)c2)cc1OC
inactive: dose: 37.5 mg/kg/injection, schedule: Q04DX003 (ip), vehicle: saline 101 % of control | dose: 75.0 mg/kg/injection, schedule: Q04DX003 (ip), vehicle: saline 93 % of control | dose: 150.0 mg/kg/injection, schedule: Q04DX003 (ip), vehicle: saline 101 % of control

N=c1ccc2cc3ccc4ccccc4c3n(O)c-2c1
inactive: dose: 100.0 mg/kg/injection, schedule: Q01DX001 (ip), vehicle: saline with Tween-80 113 % of control | dose: 200.0 mg/kg/injection, schedule: Q01DX001 (ip), vehicle: saline with Tween-80 95 % of control | dose: 400.0 mg/kg/injection, schedule: Q01DX001 (ip), vehicle: saline with Tween-80 113 % of control

OCCSc1ccc(Cl)cc1
inactive: [16] 97 % of control | [17] 95 % of control

CCOC(=O)/C(C#N)=C(\CCCCc1ccccc1)CC(C)C
inactive: [10] 101 % of control | [11] 92 % of control | [12] 104 % of control
